The results in this text go back to US8039670B2, “Analogs of alpha galactosyceramide and uses thereof” (Ludwig Institute for Cancer Research, priority 2005, dated 2011).

Structures are written as SMILES.

For one series, the system named is iNKT cell clone. Description: Cytokine release from iNKT cell clone stimulated with analog-pulsed C1R-human CD1d cells. Type of series: cell-based. The method, then: FIG. 9 Inositol-based α-GalCer derivatives are functional in vitro. Human monocyte-derived DC were pulsed with 150 ng of different inositol analogs and co-cultured with iNKT cells for 24 h. […] Numbers indicate the mean fluorescence intensity of the histogram gated on CD11c^+ cells. 6-Deoxy and 6-Sulfono-myo-inositolceramide induce significant (B) IL-12p40 and (C) IFN-γ production by DC and iNKT cells respectively in the supernatants of co-cultured DC and iNKT cells. […] Release of (D) IFN-g and (E) IL-4 from iNKT cells after 24 h in culture with C1R-human CD1d cells pulsed with α-GalCer, 6-Deoxy- or 6-Sulfono-myo-inositolceramide.
The three inositol compounds were titrated on C1R cells expressing human CD1d and used to stimulate an iNKT cell clone.

Series [1] can be described thus: Viability of analog-pulsed DC co-cultured with iNKT cells (propidium iodide). The format is cell-based, human. The following applies: human; at concentration of maximal DC maturation; read-out: DC still viable. How it is done: (§1) Different analogs of α-GalCer as indicated or LPS were added to co-cultures of human DC and iNKT cells. (A) Maturation of the DC was assessed after 40 h, gating on CD11c positive cells. Histograms indicate the CD83 and CD86 profiles of DC from different treatments; the percentages indicate the percentage of CD83hi mature DC and the numbers in parenthesis, the mean fluorescence intensity of the population contained within the labeled gate. DC and iNKT cells were co-cultured in the presence of different analogs of α-GalCer for 24 hours. Supernatants were analyzed using ELISA for the presence of (B) IL-12p40 released by the DC and (C) IFN-γ from the iNKT cells. All the compounds tested induced weaker but significant cytokine production than α-GalCer, with the exception of arabinitolceramide. (D) Titration of α-GalCer, OCH or threitolceramide on DCs and co-culture with iNKT cells induces DC maturation in vitro. Cells were co-cultured in the presence of the indicated concentration of analog and the percentages of DC with increased CD83/CD80 are shown. […] Viability of α-GalCer or analog-pulsed DC was assessed after 40 h co-culture in the presence of iNKT cells by flow cytometry. Cells were stained with propidium iodide and the percentage of live CD11c gated cells remaining in the culture are shown.
(§2) To compare the functions of high affinity α-GalCer, intermediate affinity threitolceramide with the known, low affinity analog OCH, the three compounds were titrated onto DC and used to present to iNKT cells. Maturation of DC and DC viability were examined after 48 h.

The subject of the next series is OVA-specific IgGs. Description: OVA-specific IgG in serum after co-administration with OVA (ELISA, FIG. 7B). Type of series: in vivo, mice. To be noted: 1 μg with 400 μg OVA, bled 11-14d. How it is done: (A) C57BL/6 or iNKT^−/− mice were injected i.v. with 1 μg of vehicle, α-GalCer, analog or 25 μg MPL. Twenty hours after injection splenocytes were stained with antibodies against B220 and CD86 and analyzed by flow cytometry. Maturation was assessed by the upregulation of CD86 at the cell surface, gating on B cells (B220^+). Mean fluorescence intensity for each histogram is indicated. […] Mice were bled 11-14d after administration and the serum tested by ELISA for antibodies. Briefly, ELISA plates were coated with 10 μg/ml OVA and then serial dilutions of sera added and incubated overnight at 4° C. before detecting with an HRP-conjugated sheep anti-mouse IgG.
Non-glycolipid analogs of α-GalCer stimulate B cell maturation in the presence of iNKT cells in vivo and subsequent antibody production. (A) C57BL/6 or iNKT^−/− mice were injected i.v. with 1 μg of vehicle, α-GalCer, analog or 25 μg MPL. Twenty hours after injection splenocytes were stained with antibodies against B220 and CD86 and analyzed by flow cytometry. Maturation was assessed by the upregulation of CD86 at the cell surface, gating on B cells (B220^+) (FIG. 7 A). Mean fluorescence intensity for each histogram is indicated. […] Mice were bled 11-14d after administration and the serum tested by ELISA for antibodies (FIG. 7 B).

The next series deals with DC. The series can be described thus: Viability of analog-pulsed DC co-cultured with iNKT cells (propidium iodide). Type of series: cell-based, human. To be noted: at concentration of maximal DC maturation. How it is done:
as §1, §2

The next series has as its system IL-12 p70 protein. Description: Example F: IL-12 p70 in tail blood six hours after injection (ELISA). Type of series: in vivo. To be noted: 1 μg or 10 μg. The method, then:
These experiments were performed to determine the effect of selected compounds of the invention in stimulating the production of IL-12 production in subject animals. The animals received 1 μg or 10 μg of threitol, glycerol or Gal-Cer. One group of animals also received 50 μg of MPL. Six hours following injection, tail blood samples were collected and the IL-12 p70 protein was determined using an ELISA all in accordance with standard procedures.

With `CCCCCCCCCCCCCCCCCCCCCCCCCC(=O)N[C@@H](CO[C@H]1OC(CO)[C@H](O)C(O)C1O)[C@H](O)[C@H](O)CCCCCCCCCCCCCC` (stereo partly drawn) [α-GalCer, α galactosylceramide, reference compound], the “concentration at which IFN-γ and IL-4 approach a plateau” value in the series on iNKT cell clone was 200 ng/mL. Also, the viability at 48 h, 0.8 ng/ml in series [1] came out at 10%. Further, the “OVA-specific IgGs” value with OVA-specific IgGs is “induces significant OVA-specific IgGs”.

With `CCCCCCCCCCCCCCCCCCCCCCCCCC(=O)N[C@@H](COC[C@H](O)[C@@H](O)CO)[C@H](O)[C@H](O)CCCCCCCCCCCCCC` [Compound 3, Threitol Ceramide], the “DC viability (propidium iodide negative) compared with α-GalCer” value in the series on DC is listed as “significantly greater proportion of DC were propidium iodide negative”. The IL-12/p70 secretion entry with IL-12 p70 protein was “Dose dependent increases in IL-12/p70 secretion”.
